SMILES strings stand for the structures.

As usually defined, the IC50 is the concentration that gives 50% inhibition. Low values mean higher potency, high ones lower potency.

Sequence of Vascular endothelial growth factor receptor 2 (P35968 whole entry): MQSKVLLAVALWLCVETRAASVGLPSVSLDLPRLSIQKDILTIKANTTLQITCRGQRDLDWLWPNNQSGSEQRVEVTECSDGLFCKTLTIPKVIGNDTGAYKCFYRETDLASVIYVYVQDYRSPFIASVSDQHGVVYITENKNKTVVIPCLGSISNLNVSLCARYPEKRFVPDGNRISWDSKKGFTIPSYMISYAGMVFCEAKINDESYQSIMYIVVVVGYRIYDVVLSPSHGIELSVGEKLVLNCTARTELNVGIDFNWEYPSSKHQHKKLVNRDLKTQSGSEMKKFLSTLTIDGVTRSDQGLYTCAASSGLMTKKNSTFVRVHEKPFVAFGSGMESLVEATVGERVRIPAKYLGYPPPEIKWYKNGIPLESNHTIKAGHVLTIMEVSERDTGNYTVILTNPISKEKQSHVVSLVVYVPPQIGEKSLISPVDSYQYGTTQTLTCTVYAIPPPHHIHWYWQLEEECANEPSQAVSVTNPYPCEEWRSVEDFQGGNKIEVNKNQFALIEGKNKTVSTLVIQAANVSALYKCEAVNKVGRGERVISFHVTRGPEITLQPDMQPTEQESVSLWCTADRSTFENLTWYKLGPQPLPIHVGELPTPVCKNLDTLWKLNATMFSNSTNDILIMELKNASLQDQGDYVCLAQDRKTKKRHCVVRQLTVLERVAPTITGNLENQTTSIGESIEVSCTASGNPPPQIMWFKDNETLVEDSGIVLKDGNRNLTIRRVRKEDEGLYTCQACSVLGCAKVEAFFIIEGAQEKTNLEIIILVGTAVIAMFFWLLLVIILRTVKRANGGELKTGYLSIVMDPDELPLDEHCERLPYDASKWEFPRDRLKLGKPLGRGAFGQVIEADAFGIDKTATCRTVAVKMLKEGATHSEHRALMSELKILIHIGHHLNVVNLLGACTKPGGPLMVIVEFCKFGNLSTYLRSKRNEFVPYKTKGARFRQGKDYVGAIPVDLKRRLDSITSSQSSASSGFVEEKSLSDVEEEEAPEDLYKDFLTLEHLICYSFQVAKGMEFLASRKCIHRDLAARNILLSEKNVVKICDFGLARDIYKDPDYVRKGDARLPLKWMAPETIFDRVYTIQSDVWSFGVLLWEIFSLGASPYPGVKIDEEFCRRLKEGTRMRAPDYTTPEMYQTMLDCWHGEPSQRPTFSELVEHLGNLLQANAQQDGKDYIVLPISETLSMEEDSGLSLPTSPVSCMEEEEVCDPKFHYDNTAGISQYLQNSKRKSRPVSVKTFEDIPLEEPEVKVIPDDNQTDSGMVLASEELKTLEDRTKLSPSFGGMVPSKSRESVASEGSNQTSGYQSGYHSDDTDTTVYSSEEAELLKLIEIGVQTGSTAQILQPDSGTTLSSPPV

The assay concerns the target Vascular endothelial growth factor receptor 2 (Homo sapiens, UniProt P35968).
`CNC(=O)c1csc2cc(Oc3ccnc4cc(C5=NCCN5C)sc34)ccc12` had a half-inhibitory concentration (IC50) of 0.34 nM. As to `COc1ccccc1NC(=O)c1ccc(CSc2nnc3c(n2)[nH]c2ccccc23)cc1`, the IC50 came out at 1.6 nM.

In turn, `O=C(Nc1ccc(Oc2ncnc3sc4c(c23)CCCC4)cc1)c1ccccc1` came in with an IC50 of 4.1 nM. Against the preceding compound, the IC50 is about 2.6-fold higher. For the compound `C[C@@H]1Oc2ccc(-c3csc(NC(=O)c4cccc(Cl)c4)n3)cc2NC1=O`, the concentration for half-maximal inhibition (IC50) was found to be 3.4 nM.

In turn, `CCOc1ccc(Nc2cnnc(Nc3ccc(OCC)cc3)n2)cc1` came in with an IC50 of 4.1 nM.

The compound `COc1ccc(OC)c(NC(=O)c2ccc(CSc3ncnc4[nH]cnc34)cc2)c1` showed a half-inhibitory concentration (IC50) of 5.9 nM. For `CCOC(=O)CSc1nc2c(c(=O)[nH]c(=O)n2C)n1Cc1cccc(C)c1`, the 50% inhibitory concentration (IC50) was determined as 2.9 nM. For `NC(=O)c1cc(-c2ccccc2)sc1NC(=O)c1ccc(OC(F)F)cc1`, the IC50 stood at 5.6 nM. `Cc1ccc2nc(NC(=O)Cc3csc(NC(=O)Nc4cccc(Cl)c4)n3)sc2c1` displayed an IC50 of 4.2 nM. On to `O=C(COc1cccc(NC(=O)c2cccnc2)c1)Nc1ccc(Br)cc1` [ASN01107570], for which half-maximal inhibition (IC50) was put at 5 nM. As for `Cc1nc2ccccc2n1C1CCN(CC(=O)Nc2ccccc2Br)CC1` [ASN06356088], the figure is 10 nM; as for `CNC(=O)c1cc(COc2nnc(Nc3ccc(Cl)cc3)c3ccoc23)ccn1` [TELATINIB], 6 nM.

Values taken from ChEMBL document CHEMBL1287660, “Pharmacophore modeling and virtual screening studies for new VEGFR-2 kinase inhibitors” (Eur J Med Chem, 2010).
